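Test compounds were applied to cells in 96-well plates for 48 hours at 5 doses. GI50: concentration for 50% inhibition of growth.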 The source made the active and inactive calls. Rule as the data show it: active = GI50 up to about 1.1 µM and inactive = higher.
What was measured:
Experiment in all cases: NCI tumour cell line growth inhibition, 48 h
[1] = tested on: MDA-MB-231
[2] = tested on: SR
[3] = tested on: M14
[4] = tested on: HL-60
[5] = tested on: Hs-578T
[6] = tested on: HOP-92
[7] = tested on: Malme-3M
[8] = tested on: DU-145
[9] = tested on: IGROV-1
[10] = tested on: A549
[11] = tested on: SF-295
[12] = tested on: COLO 205
[13] = tested on: UACC-62
[14] = tested on: NCI/ADR-RES
[15] = tested on: EKVX
[16] = tested on: NCI-H522
[17] = tested on: SF-268
[18] = tested on: 786-0
[19] = tested on: HOP-62
[20] = tested on: KM12

SMILES | GI50 [1] | GI50 [2] | GI50 [3] | GI50 [4] | GI50 [5] | GI50 [6] | GI50 [7] | GI50 [8] | GI50 [9] | GI50 [10] | GI50 [11] | GI50 [12] | GI50 [13] | GI50 [14] | GI50 [15] | GI50 [16] | GI50 [17] | GI50 [18] | GI50 [19] | GI50 [20]
O=[N+]([O-])/C=C/c1cn(CCCCCn2cc(/C=C/[N+](=O)[O-])c3ccccc32)c2ccccc12 | 1.95 µM (inactive) | 0.973 µM (active) | 1.44 µM (inactive) | 0.787 µM (active) | 1.87 µM (inactive) | 19.8 µM (inactive) | 3.54 µM (inactive) | 2.19 µM (inactive) | 2.23 µM (inactive) | 2.96 µM (inactive) | 9.89 µM (inactive) | 4.3 µM (inactive) | 6.95 µM (inactive) | 10.2 µM (inactive) | 11.6 µM (inactive) | 10.4 µM (inactive) | 2.18 µM (inactive) | 0.392 µM (active) | 3.93 µM (inactive) | 1.69 µM (inactive)
CCOC(CNCCC(=O)OC)OCC | > 10 µM (inactive) | > 10 µM (inactive) | > 10 µM (inactive) | > 10 µM (inactive) | > 10 µM (inactive) | > 10 µM (inactive) | > 10 µM (inactive) | > 10 µM (inactive) | > 10 µM (inactive) | > 10 µM (inactive) | > 10 µM (inactive) | > 10 µM (inactive) | > 10 µM (inactive) | > 10 µM (inactive) | > 10 µM (inactive) | > 10 µM (inactive) | > 10 µM (inactive) | > 10 µM (inactive) | > 10 µM (inactive) | > 10 µM (inactive)
O=[N+]([O-])c1ccccc1S(=O)(=O)c1ccccc1[N+](=O)[O-] | > 60.7 µM (inactive) | > 100 µM (inactive) | > 100 µM (inactive) | > 100 µM (inactive) | 32.4 µM (inactive) | 32.4 µM (inactive) | > 100 µM (inactive) | > 100 µM (inactive) | > 84.7 µM (inactive) | > 56.2 µM (inactive) | 36.9 µM (inactive) | > 100 µM (inactive) | > 100 µM (inactive) | > 100 µM (inactive) | > 56.2 µM (inactive) | > 67.6 µM (inactive) | 31.7 µM (inactive) | 64.6 µM (inactive) | 34.9 µM (inactive) | > 72.3 µM (inactive)
C/C(=N/CC(=O)O)c1ccccc1 | > 100 µM (inactive) | 65 µM (inactive) | > 100 µM (inactive) | 35.9 µM (inactive) | > 100 µM (inactive) | > 100 µM (inactive) | > 100 µM (inactive) | > 100 µM (inactive) | > 100 µM (inactive) | > 100 µM (inactive) | > 100 µM (inactive) | > 100 µM (inactive) | > 100 µM (inactive) | > 100 µM (inactive) | > 100 µM (inactive) | 34.8 µM (inactive) | > 100 µM (inactive) | > 100 µM (inactive) | > 100 µM (inactive) | > 100 µM (inactive)
Cc1ccc(C(=O)CCl)o1 | > 7.31 µM (inactive) | 3.07 µM (inactive) | 3.86 µM (inactive) | 2.11 µM (inactive) | > 10 µM (inactive) | > 10 µM (inactive) | 3.18 µM (inactive) | > 10 µM (inactive) | > 9.68 µM (inactive) | > 10 µM (inactive) | > 10 µM (inactive) | 3.01 µM (inactive) | > 7.91 µM (inactive) | > 10 µM (inactive) | > 10 µM (inactive) | 2.92 µM (inactive) | > 6.97 µM (inactive) | 4.28 µM (inactive) | > 10 µM (inactive) | > 10 µM (inactive)

Source: ChEMBL document CHEMBL1201862, “PubChem BioAssay data set” (2004)
